# Results published in patent publication US6359156B1, “Oxime amides and hydrazone amides having fungicidal activity” (Monsanto Technology LLC, priority 1999, dated 2002).
# Where two headings read alike, the source gives them in different places.
# Assays:
# Ggt [1] = assay: In vitro assay: inhibition of mycelial growth of Ggt on minimal media agar; type: cell-based, Gaeumannomyces graminis var. tritici; details: Gaeumannomyces graminis, read-out: % Control of Ggt In Vitro
# Method: The test compounds (0.25 mL of an appropriate stock solution in acetone) were incorporated into 25 mL minimal media agar [prepared by autoclaving a solution of 17.5 g Czapek Dox broth (Difco), 7.5 g purified agar or Bacto-agar (Difco), and 500 mL distilled/deionized water, and then adding 50 μL of 1 mg/mL thiamine hydrochloride and 50 μL of 1 mg/mL biotin in 5% ethanol] and plates were prepared.
# Each plate was inoculated by placing in a triangular shape three 4 mm plugs of Ggt grown on the minimal media agar described above. The plates were incubated in the dark at 19-20° C. for 4-5 days. The growth of the fungus was measured as the diameter of the mycelial growth and the result expressed as Percent Inhibition, calculated as [1−[(mm growth on treated plate−4)/(mm growth on control plate−4)]]×100.
# Ggt [2] = assay: 4 Week In Vivo Seed Treatment Assay on "Bergen" wheat in soil infested with Ggt; parameters: species or system Gaeumannomyces graminis var. tritici
# Method: The test compounds were tested for control of Ggt on “Bergen” varieties of wheat grown in 3 inch square pots containing soil (equal to thirds of Metro-mix, sand, and silt-loam filed soil, all steam sterilized). Seeds were treated with a solution of a test compound in acetone. Using a 10,000 ppm stock for each compound, the following serial dilutions were prepared.
# When 1 mL of the stock and dilutions was applied to 10 gm of seed, the resultant application rates were 100 and 25 g of active ingredient per 100 kg of seed.
# A treatment jar was rinsed 2 times with 3 mL of acetone. The 1 mL of the solution was swirled to cover the base of the jar. 10 gm of seed was added to the jar and capped, after which the jar was swirled and shaken until the seeds got a rapid and even coverage. After about 30-50 seconds, the lid was removed while the shaking was continued. After 1 minute, the jar was set aside to dry. When dry, the seed was poured into an envelope for storage until planting.
# Compounds were tested for control of Ggt on “Bergen” varieties of wheat grown in 3 inch square pots containing soil infested with Ggt. The infestation was accomplished by mixing the soil with an inoculum prepared by growing Ggt on infested sterile oats (400 cc whole oats, 350 mL deionized water, autoclaved). After a one month incubation period at room temperature, the oats were dried and mixed with the soil at 4% v/v.
# The roots were harvested, washed, and rated after 4 weeks. Each treatment was assigned a percent (%) diseased root area value using 1, 5, 10, 20, 30, 40, 50, 60, 80, or 100% ratings. Each pot of plants got a single rating.
# [3] = 0.01 ppm in agar, 4-5 days at 19-20° C.
# [4] = 0.1 ppm in agar, 4-5 days at 19-20° C.
# [5] = 1 ppm in agar, 4-5 days at 19-20° C.
# [6] = 10 ppm in agar, 4-5 days at 19-20° C.
# [7] = 25 g ai/100 kg seed, roots rated after 4 weeks
# [8] = 100 g ai/100 kg seed, roots rated after 4 weeks
Compound,inhibition of growth at 0.1 ppm (Ggt [1]; [4]),inhibition of growth at 1 ppm (Ggt [1]; [5]),inhibition of growth at 10 ppm (Ggt [1]; [6]),other results
CCCNC(=O)/C(=N\OC(C)(CC)CC)c1ccccc1 [Example 7],98%,100%,100%,inhibition of growth at 0.01 ppm (Ggt [1]; [3]): 16%
CCCNC(=O)C(=NOC(C)(C)C)c1ccccc1F [Example 11],0%,43%,77%,–
"C=CCNC(=O)c1c([Si](C)(C)C)sc(C)c1C [Standard, reference compound]",–,–,–,"% Control of Ggt In Vivo (Ggt [2]; 25, roots rated after 4 weeks): 90%; % Control of Ggt In Vivo (Ggt [2]; 100, roots rated after 4 weeks): 93%; inhibition of growth at 0.01 ppm (Ggt [1]): 100%; inhibition of growth at 0.1 ppm (Ggt [1]): 100%; inhibition of growth at 1 ppm (Ggt [1]): 100%; inhibition of growth at 10 ppm (Ggt [1]): 100%"
CCCNC(=O)/C(=N/OC(C)(C)C)c1cccs1 [Example 15],10%,20%,94%,–
C=CCNC(=O)C(=NOC(C)(C)C)c1ccccc1 [Example 12],67%,98%,100%,–
CCCNC(=O)/C(=N/OC(C)(CC)CC)c1ccccc1 [Example 8],2%,80%,98%,–
CCCNC(=O)/C(=N\OC(C)(C)C)c1cccs1 [Example 14],96%,100%,100%,–
CCCNC(=O)/C(=N/NC(C)(C)C)c1ccccc1 [Example 4],0%,0%,43%,–
CCCNC(=O)/C(=N/OC(C)(C)C)c1ccccc1 [Example 2],27%,0%,0%,–
CCCNC(=O)C(=NOC(C)(C)C)c1cccc(C)c1 [Example 10],5%,32%,80%,–
CCCNC(=O)C(=NOC(C)(C)C)c1ccco1 [Example 16],24%,51%,92%,–
CCCNC(=O)/C(=N/OC(C)(C)CC)c1ccccc1 [Example 6],2%,2%,20%,–
CCCNC(=O)/C(=N\OC(C)(C)C)c1ccccc1 [Example 1],96%,100%,100%,% Control of Ggt In Vivo (Ggt [2]; [7]): 71%; % Control of Ggt In Vivo (Ggt [2]; [8]): 79%; inhibition of growth at 0.01 ppm (Ggt [1]; [3]): 4%
C=CCNC(=O)C(=NNC(C)(C)C)c1ccccc1 [Example 13],25%,96%,96%,–
CCCNC(=O)/C(=N\OC(C)(C)CC)c1ccccc1 [Example 5],100%,100%,100%,inhibition of growth at 0.01 ppm (Ggt [1]; [3]): 59%
CCCNC(=O)/C(=N\NC(C)(C)C)c1ccccc1 [Example 3],19%,89%,97%,% Control of Ggt In Vivo (Ggt [2]; [7]): 21%; % Control of Ggt In Vivo (Ggt [2]; [8]): 0%
CCCNC(=O)C(=NOC(C)(C)C)c1ccc(C)cc1 [Example 9],7%,37%,80%,–
